Experimental data published in ChEMBL document CHEMBL3885881, “DrugMatrix”.

Organism: Rattus norvegicus
Assay: DrugMatrix - Regimen: Daily Repeat
Type: toxicity, organism-based, Sprague-Dawley
Design: regimen Daily Repeat, gender Male, age 6-8 weeks
Conditions: in vivo, iv, vehicle 100 % SALINE; for ABSOLUTE BASOPHIL / ABSOLUTE EOSINOPHIL / ABSOLUTE LYMPHOCYTE / ABSOLUTE MONOCYTE / ABSOLUTE SEGMENTED NEUTROPHIL / BASOPHIL / EOSINOPHIL / ERYTHROCYTE COUNT / HEMATOCRIT / HEMOGLOBIN / LEUKOCYTE COUNT / LYMPHOCYTE / MEAN CORPUSCULAR HEMOGLOBIN / MEAN CORPUSCULAR HEMOGLOBIN CONCENTRATION / MEAN CORPUSCULAR VOLUME / MONOCYTE / NEUTROPHIL / NUCLEATED RED BLOOD CELLS / PLATELET COUNT: tissue Blood; for ALANINE AMINOTRANSFERASE / ALBUMIN / ALKALINE PHOSPHATASE / ASPARTATE AMINOTRANSFERASE / BLOOD UREA NITROGEN / CARBON DIOXIDE / CHLORIDE / CHOLESTEROL / CREATINE PHOSPHOKINASE / CREATININE / GLUCOSE / LACTATE DEHYDROGENASE / LIPASE / PHOSPHORUS / POTASSIUM / SODIUM / TOTAL BILIRUBIN / TOTAL PROTEIN / URIC ACID: tissue Plasma
[1] = 2 mg/kg, 72 h, dose level Low, time 3 day
[2] = 2 mg/kg, 120 h, dose level Low, time 5 day
[3] = 20 mg/kg, 72 h, dose level High, time 3 day
[4] = 20 mg/kg, 120 h, dose level High, time 5 day

Structure (SMILES): CCN1CC(CCN2CCOCC2)C(c2ccccc2)(c2ccccc2)C1=O (configuration not stated) [DOXAPRAM]
- ABSOLUTE BASOPHIL [1]: 0 CELLS/uL
- ABSOLUTE EOSINOPHIL [1]: 0 CELLS/uL
- ABSOLUTE LYMPHOCYTE [1]: 13662.33 CELLS/uL
- ABSOLUTE MONOCYTE [1]: 351.67 CELLS/uL
- ABSOLUTE SEGMENTED NEUTROPHIL [1]: 2319.33 CELLS/uL
- BASOPHIL [1]: 0%
- EOSINOPHIL [1]: 0%
- ERYTHROCYTE COUNT [1]: 5.67 x10E6/uL
- HEMATOCRIT [1]: 35.7%
- HEMOGLOBIN [1]: 14.2 G/DL
- LEUKOCYTE COUNT [1]: 16.33 x10E3/uL
- LYMPHOCYTE [1]: 84%
- MEAN CORPUSCULAR HEMOGLOBIN [1]: 25.1 pg
- MEAN CORPUSCULAR HEMOGLOBIN CONCENTRATION [1]: 39.77 G/DL
- MEAN CORPUSCULAR VOLUME [1]: 63.03 fL
- MONOCYTE [1]: 2%
- NEUTROPHIL [1]: 14%
- NUCLEATED RED BLOOD CELLS [1]: 0 /100WBC
- PLATELET COUNT [1]: 1174 x10E3/uL
- ALANINE AMINOTRANSFERASE [1]: 72.33 u/L
- ALBUMIN [1]: 3.93 G/DL
- ALKALINE PHOSPHATASE [1]: 296.67 u/L
- ASPARTATE AMINOTRANSFERASE [1]: 101 u/L
- BLOOD UREA NITROGEN [1]: 17 mg/dL
- CARBON DIOXIDE [1]: 26.33 mmol/L
- CHLORIDE [1]: 101.33 MEQ/L
- CHOLESTEROL [1]: 83.33 mg/dL
- CREATINE PHOSPHOKINASE [1]: 298.67 u/L
- CREATININE [1]: 0.15 mg/dL
- GLUCOSE [1]: 149 mg/dL
- LACTATE DEHYDROGENASE [1]: 372.67 u/L
- LIPASE [1]: 8 u/L
- PHOSPHORUS [1]: 12.83 mg/dL
- POTASSIUM [1]: 7.17 MEQ/L
- SODIUM [1]: 146.3 MEQ/L
- TOTAL BILIRUBIN [1]: 0.17 mg/dL
- TOTAL PROTEIN [1]: 6.1 G/DL
- URIC ACID [1]: 1.53 mg/dL
- ABSOLUTE BASOPHIL [2]: 0 CELLS/uL
- ABSOLUTE EOSINOPHIL [2]: 0 CELLS/uL
- ABSOLUTE LYMPHOCYTE [2]: 13405 CELLS/uL
- ABSOLUTE MONOCYTE [2]: 468.67 CELLS/uL
- ABSOLUTE SEGMENTED NEUTROPHIL [2]: 2059.67 CELLS/uL
- BASOPHIL [2]: 0%
- EOSINOPHIL [2]: 0%
- ERYTHROCYTE COUNT [2]: 6.04 x10E6/uL
- HEMATOCRIT [2]: 37.2%
- HEMOGLOBIN [2]: 14.8 G/DL
- LEUKOCYTE COUNT [2]: 15.93 x10E3/uL
- LYMPHOCYTE [2]: 84%
- MEAN CORPUSCULAR HEMOGLOBIN [2]: 24.5 pg
- MEAN CORPUSCULAR HEMOGLOBIN CONCENTRATION [2]: 39.8 G/DL
- MEAN CORPUSCULAR VOLUME [2]: 61.53 fL
- MONOCYTE [2]: 3%
- NEUTROPHIL [2]: 13%
- NUCLEATED RED BLOOD CELLS [2]: 0.67 /100WBC
- PLATELET COUNT [2]: 1035 x10E3/uL
- ALANINE AMINOTRANSFERASE [2]: 97.67 u/L
- ALBUMIN [2]: 3.97 G/DL
- ALKALINE PHOSPHATASE [2]: 400.33 u/L
- ASPARTATE AMINOTRANSFERASE [2]: 101.33 u/L
- BLOOD UREA NITROGEN [2]: 15.33 mg/dL
- CARBON DIOXIDE [2]: 26.33 mmol/L
- CHLORIDE [2]: 101.33 MEQ/L
- CHOLESTEROL [2]: 65.33 mg/dL
- CREATINE PHOSPHOKINASE [2]: 230 u/L
- CREATININE [2]: 0.14 mg/dL
- GLUCOSE [2]: 159.33 mg/dL
- LACTATE DEHYDROGENASE [2]: 100.67 u/L
- LIPASE [2]: 8.33 u/L
- PHOSPHORUS [2]: 12.7 mg/dL
- POTASSIUM [2]: 6.47 MEQ/L
- SODIUM [2]: 144.37 MEQ/L
- TOTAL BILIRUBIN [2]: 0.13 mg/dL
- TOTAL PROTEIN [2]: 6.17 G/DL
- URIC ACID [2]: 1.6 mg/dL
- ABSOLUTE BASOPHIL [3]: 0 CELLS/uL
- ABSOLUTE EOSINOPHIL [3]: 173.33 CELLS/uL
- ABSOLUTE LYMPHOCYTE [3]: 15104 CELLS/uL
- ABSOLUTE MONOCYTE [3]: 284 CELLS/uL
- ABSOLUTE SEGMENTED NEUTROPHIL [3]: 1672 CELLS/uL
- BASOPHIL [3]: 0%
- EOSINOPHIL [3]: 1%
- ERYTHROCYTE COUNT [3]: 5.38 x10E6/uL
- HEMATOCRIT [3]: 34.17%
- HEMOGLOBIN [3]: 13.5 G/DL
- LEUKOCYTE COUNT [3]: 17.23 x10E3/uL
- LYMPHOCYTE [3]: 87.67%
- MEAN CORPUSCULAR HEMOGLOBIN [3]: 25.13 pg
- MEAN CORPUSCULAR HEMOGLOBIN CONCENTRATION [3]: 39.53 G/DL
- MEAN CORPUSCULAR VOLUME [3]: 63.6 fL
- MONOCYTE [3]: 1.67%
- NEUTROPHIL [3]: 9.67%
- NUCLEATED RED BLOOD CELLS [3]: 0 /100WBC
- PLATELET COUNT [3]: 1285.33 x10E3/uL
- ALANINE AMINOTRANSFERASE [3]: 51.67 u/L
- ALBUMIN [3]: 4.33 G/DL
- ALKALINE PHOSPHATASE [3]: 402.67 u/L
- ASPARTATE AMINOTRANSFERASE [3]: 102.67 u/L
- BLOOD UREA NITROGEN [3]: 15 mg/dL
- CARBON DIOXIDE [3]: 21.67 mmol/L
- CHLORIDE [3]: 102 MEQ/L
- CHOLESTEROL [3]: 79 mg/dL
- CREATINE PHOSPHOKINASE [3]: 445.33 u/L
- CREATININE [3]: 0.15 mg/dL
- GLUCOSE [3]: 149.33 mg/dL
- LACTATE DEHYDROGENASE [3]: 669.33 u/L
- LIPASE [3]: 9 u/L
- PHOSPHORUS [3]: 13.03 mg/dL
- POTASSIUM [3]: 6.9 MEQ/L
- SODIUM [3]: 143.67 MEQ/L
- TOTAL BILIRUBIN [3]: 0.17 mg/dL
- TOTAL PROTEIN [3]: 5.93 G/DL
- URIC ACID [3]: 1.7 mg/dL
- ABSOLUTE BASOPHIL [4]: 0 CELLS/uL
- ABSOLUTE EOSINOPHIL [4]: 118.67 CELLS/uL
- ABSOLUTE LYMPHOCYTE [4]: 15901.33 CELLS/uL
- ABSOLUTE MONOCYTE [4]: 415.33 CELLS/uL
- ABSOLUTE SEGMENTED NEUTROPHIL [4]: 1364.67 CELLS/uL
- BASOPHIL [4]: 0%
- EOSINOPHIL [4]: 0.67%
- ERYTHROCYTE COUNT [4]: 5.51 x10E6/uL
- HEMATOCRIT [4]: 34.63%
- HEMOGLOBIN [4]: 13.57 G/DL
- LEUKOCYTE COUNT [4]: 17.8 x10E3/uL
- LYMPHOCYTE [4]: 89.33%
- MEAN CORPUSCULAR HEMOGLOBIN [4]: 24.63 pg
- MEAN CORPUSCULAR HEMOGLOBIN CONCENTRATION [4]: 39.17 G/DL
- MEAN CORPUSCULAR VOLUME [4]: 62.8 fL
- MONOCYTE [4]: 2.33%
- NEUTROPHIL [4]: 7.67%
- NUCLEATED RED BLOOD CELLS [4]: 0 /100WBC
- PLATELET COUNT [4]: 1309.33 x10E3/uL
- ALANINE AMINOTRANSFERASE [4]: 57 u/L
- ALBUMIN [4]: 4.33 G/DL
- ALKALINE PHOSPHATASE [4]: 365.67 u/L
- ASPARTATE AMINOTRANSFERASE [4]: 95.67 u/L
- BLOOD UREA NITROGEN [4]: 16 mg/dL
- CARBON DIOXIDE [4]: 23.33 mmol/L
- CHLORIDE [4]: 102.67 MEQ/L
- CHOLESTEROL [4]: 66.33 mg/dL
- CREATINE PHOSPHOKINASE [4]: 259 u/L
- CREATININE [4]: 0.18 mg/dL
- GLUCOSE [4]: 166 mg/dL
- LACTATE DEHYDROGENASE [4]: 229 u/L
- LIPASE [4]: 8.33 u/L
- PHOSPHORUS [4]: 13.17 mg/dL
- POTASSIUM [4]: 6.59 MEQ/L
- SODIUM [4]: 144.97 MEQ/L
- TOTAL BILIRUBIN [4]: 0.23 mg/dL
- TOTAL PROTEIN [4]: 5.93 G/DL
- URIC ACID [4]: 2.2 mg/dL
